In patent publication US5047555A, “4-aminophenol derivatives and processes for preparing the same” (Tanabe Seiyaku Co., Ltd., priority 1988, dated 1991):

Tested on: PCA (passive cutaneous anaphylaxis)
Assay: not given
Details: cited from earlier work
In the case of `COc1cc(C(=O)Nc2cc(Cl)c(O)c(Cl)c2)cc(OC)c1OC` [2,6-dichloro-4-(3,4,5-trimethoxybenzoyl)aminophenol], the “immune control activity or PCA inhibitory activity” value is listed as “immune control activity or PCA (passive cutaneous anaphylaxis) inhibitory activity”.

Molecular target: T1, 5-lipoxygenase (Rattus norvegicus, UniProt P12527)
T1 construct: An enzyme solution containing 5-lipoxygenase was prepared from cultured basophilic leukemia cell strain RBL-1 cells; endogenous in cells; host or cells: RBL-1 cells
T1 sequence (P12527 1-673): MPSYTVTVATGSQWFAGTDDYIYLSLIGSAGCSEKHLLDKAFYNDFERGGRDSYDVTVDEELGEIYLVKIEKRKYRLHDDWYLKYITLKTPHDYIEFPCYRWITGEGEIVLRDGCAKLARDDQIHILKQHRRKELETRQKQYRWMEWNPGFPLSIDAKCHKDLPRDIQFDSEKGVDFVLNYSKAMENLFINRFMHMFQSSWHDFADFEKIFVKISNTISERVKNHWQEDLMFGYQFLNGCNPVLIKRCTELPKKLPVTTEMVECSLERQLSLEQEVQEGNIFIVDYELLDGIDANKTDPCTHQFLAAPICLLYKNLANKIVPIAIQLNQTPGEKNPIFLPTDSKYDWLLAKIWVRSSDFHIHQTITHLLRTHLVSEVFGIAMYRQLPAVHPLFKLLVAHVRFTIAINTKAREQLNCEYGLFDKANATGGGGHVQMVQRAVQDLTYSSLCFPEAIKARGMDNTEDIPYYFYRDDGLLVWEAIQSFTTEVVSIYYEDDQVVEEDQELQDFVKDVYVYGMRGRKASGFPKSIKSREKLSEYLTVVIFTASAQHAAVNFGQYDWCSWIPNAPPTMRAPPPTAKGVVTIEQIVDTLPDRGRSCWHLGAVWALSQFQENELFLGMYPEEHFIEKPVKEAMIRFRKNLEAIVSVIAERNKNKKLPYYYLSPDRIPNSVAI
Assay: 5-Lipoxygenase inhibitory activity (5-HETE formation, enzyme solution from RBL-1 cells)
Assay type: biochemical
Details: radiolabelled arachidonic acid substrate, indomethacin, calcium chloride, ATP; RBL-1 enzyme
Protocol: An enzyme solution containing 5-lipoxygenase was prepared from cultured basophilic leukemia cell strain RBL-1 cells, and the reaction was carried out with radiolabelled arachidonic acid as the substrate in the presence of indomethacin, calcium chloride, adenosine triphosphate and the substance to be tested. A predetermined amount of the reaction mixture was spotted on a thin layer, separated by development, and then the radioactivity of the 5-HETE (5-hydroxyeicosatetraenic acid) fraction of the enzyme reaction product was measured to give the index of the 5-lipoxygenase activity. […] [Method of M. Furukawa et al. described in Biochimica et Biophysica acta, vol. 795, p. 458 (1984)]
In the case of `Cc1cc(NC(=O)c2cc3ccccc3s2)cc(C)c1O`, the IC50 is reported as 0.21 µM.
Work on `Cc1cc(NC(=O)/C=C/c2cccn2C)cc(C)c1O` yielded an IC50 of 0.44 µM.
Work on `CC=CC=CC(=O)Nc1cc(C)c(O)c(C)c1` yielded an IC50 of 0.4 µM.
`CC(C)c1cc(NC(=O)c2cccs2)cc(C(C)C)c1O` [4-(2-thienylcarbonyl)-amino-2,6-diisopropylphenol] showed an IC50 of 0.15 µM.
Work on `CCCCCCC(=O)Nc1cc(C)c(O)c(C)c1` [both CH3, (CH2)5 CH3] yielded an IC50 of 0.3 µM.
In the case of `CCCCCCCC(=O)Nc1cc(C)c(O)c(C)c1` [both CH3, (CH2)6 CH3], the IC50 is reported as 0.33 µM.
With `CCCCCCCCC(=O)Nc1cc(C)c(O)c(C)c1` [both CH3, (CH2)7 CH3, 4-nonanoylamino-2,6-dimethylphenol] the IC50 was 0.4 µM.
`Cc1cc(NC(=O)c2ccsc2)cc(C)c1O` [drawing 7] showed an IC50 of 0.81 µM.
Compound `Cc1ccc(C(=O)Nc2cc(C)c(O)c(C)c2)s1` [drawing 8] has an IC50 of 0.27 µM.
Work on `Cc1cc(NC(=O)/C=C/c2cccs2)cc(C)c1O` [drawing 11] yielded an IC50 of 0.2 µM.
In the case of `Cc1cc(NC(=O)CCc2cccs2)cc(C)c1O` [drawing 13], the IC50 is reported as 0.76 µM.
In the case of `COc1cccc(/C=C/C(=O)Nc2cc(C)c(O)c(C)c2)c1` [drawing 16], the IC50 is reported as 0.24 µM.
`COc1ccc(/C=C/C(=O)Nc2cc(C)c(O)c(C)c2)cc1` [drawing 17] showed an IC50 of 0.22 µM.
In the case of `COc1ccc(/C=C(\C)C(=O)Nc2cc(C)c(O)c(C)c2)cc1` [drawing 19], the IC50 is reported as 0.15 µM.
`CC(=O)Oc1ccc(CCC(=O)Nc2cc(C)c(O)c(C)c2)cc1OC(C)=O` [drawing 20] gave an IC50 of 0.2 µM.
`COc1ccc(CCC(=O)Nc2cc(C)c(O)c(C)c2)cc1` [drawing 21] showed an IC50 of 0.25 µM.
`COc1ccc(/C=C(\C)C(=O)Nc2cc(C(C)C)c(O)c(C(C)C)c2)cc1` [drawing 22] showed an IC50 of 0.15 µM.

Tested on: Leukotriene C4 formation
Assay: Leukotriene C4 formation inhibitory activity (sensitized guinea pig lung fragments)
Assay type: cell-based
Details: Cavia porcellus; 10^-5 M; ovalbumin-sensitized guinea pig lung fragments, ovalbumin challenge in vitro, radioimmunoassay
Protocol: Leukotriene C4 formation inhibitory activity
Lung fragments of guinea pig sensitized with ovalbumin were treated with the test compound and challenged with ovalbumin in vitro. After solvent extraction, leukotriene C4 in the supernatant was determined by radioimmunoassay. The leukotriene C4 formation inhibitory activity of the test compound is expressed as % inhibition at the sample concentration of 10^-5 M.
`Cc1cc(NC(=O)c2cccs2)cc(C)c1O` gave an inhibition at 10 µM of 76.6%.
Compound `COc1cccc(CCC(=O)Nc2cc(C)c(O)c(C)c2)c1` has an inhibition at 10 µM of 66.9%.
With `COc1ccc(CC(C)C(=O)Nc2cc(C)c(O)c(C)c2)cc1` (stereo not shown) the inhibition at 10 µM was 58.9%.
Compound `COc1ccc(/C=C(\C)C(=O)Nc2cc(C(C)(C)C)c(O)c(C(C)(C)C)c2)cc1` has an inhibition at 10 µM of 58.3%.
Work on `CC(C)c1cc(NC(=O)c2cccs2)cc(C(C)C)c1O` [4-(2-thienylcarbonyl)-amino-2,6-diisopropylphenol] yielded an inhibition at 10 µM of 79.9%.
With `Cc1cc(NC(=O)c2ccsc2)cc(C)c1O` [drawing 25] the inhibition at 10 µM was 62.9%.
`Cc1ccc(C(=O)Nc2cc(C)c(O)c(C)c2)s1` [drawing 27] showed an inhibition at 10 µM of 59%.
In the case of `Cc1cc(NC(=O)CCc2cccs2)cc(C)c1O` [drawing 28], the inhibition at 10 µM is reported as 45.8%.
Work on `Cc1cc(NC(=O)/C=C/c2cccs2)cc(C)c1O` [drawing 30] yielded an inhibition at 10 µM of 65%.
Work on `COc1ccc(CCC(=O)Nc2cc(C)c(O)c(C)c2)cc1` [drawing 33] yielded an inhibition at 10 µM of 49.3%.
`COc1cccc(/C=C/C(=O)Nc2cc(C)c(O)c(C)c2)c1` [drawing 35] gave an inhibition at 10 µM of 46%.
`COc1ccc(/C=C(\C)C(=O)Nc2cc(C)c(O)c(C)c2)cc1` [drawing 37] gave an inhibition at 10 µM of 58.1%.

Tested on: lipoxygenase
Assay: not given
Details: cited from earlier work
In the case of `CCCc1cc(F)c2oc(C(=O)OCc3ccccc3)c(C)c2c1O`, the lipoxygenase inhibitory activity is listed as “lipoxygenase inhibitory activity”.
For `CCCc1cc(F)c2oc(C(=O)OCC)c(C)c2c1O`, the lipoxygenase inhibitory activity is listed as “lipoxygenase inhibitory activity”.
In the case of `Cc1cnc(Nc2ccc(O)c(C(C)(C)C)c2C(C)(C)C)s1` [4-[2-(5-methyl)thiazolylamino]-2,3-di-tert-butylphenol], the lipoxygenase inhibitory activity is given as “lipoxygenase inhibitory activity”.

Tested on: Leukotriene B4 formation
Assay: Leukotriene B4 formation inhibitory activity (guinea pig neutrophil suspension)
Assay type: cell-based
Details: Cavia porcellus, 10^-6 M, guinea pig neutrophils, calcium ionophore A23187 and arachidonic acid, HPLC
Protocol: Leukotriene B4 formation inhibitory activity
A neutrophil suspension, prepared by administration of casein intraperitoneally to guinea pig, was treated with the test compound and challenged with calcium ionophore A23187 and arachidonic acid. After solvent extraction, leukotriene B4 was assayed by high performance liquid chromatography. The leukotriene B4 formation inhibitory activity of the test compound is expressed as % inhibition at the sample concentration of 10^-6 M. [Method of Douglass et al. described in Prostaglandins vol. 31, p. 358 (1986)]
With `CC(=O)Oc1ccc(/C=C/C(=O)Nc2cc(C)c(O)c(C)c2)cc1OC(C)=O` the inhibition at 1 µM was 82%.
`CC(C)=CCC/C(C)=C/C(=O)Nc1cc(C)c(O)c(C)c1` gave an inhibition at 1 µM of 82.5%.
For `CC(C)=CCC/C(C)=C\C(=O)Nc1cc(C)c(O)c(C)c1`, the inhibition at 1 µM was 95.3%.
`CC(C)=CCC/C(C)=C/CC/C(C)=C/C(=O)Nc1cc(C)c(O)c(C)c1` gave an inhibition at 1 µM of 90.5%.
Work on `CC(C)=CCC/C(C)=C/CC/C(C)=C\C(=O)Nc1cc(C)c(O)c(C)c1` yielded an inhibition at 1 µM of 98.5%.
In the case of `CCCCCCCC(=O)Nc1cc(CC)c(O)c(CC)c1` [both C2 H5, (CH2)6 CH3], the inhibition at 1 µM is reported as 85.6%.
`CCCCCCC(=O)Nc1cc(C)c(O)c(C)c1` [both CH3, (CH2)5 CH3] showed an inhibition at 1 µM of 53.1%.
With `CCCCCCCC(=O)Nc1cc(C)c(O)c(C)c1` [both CH3, (CH2)6 CH3] the inhibition at 1 µM was 59.7%.
In the case of `CCCCCCCCC(=O)Nc1cc(C)c(O)c(C)c1` [both CH3, (CH2)7 CH3, 4-nonanoylamino-2,6-dimethylphenol], the inhibition at 1 µM is reported as 57.3%.
With `CCCCCCCC(=O)Nc1cc(C(C)C)c(O)c(C(C)C)c1` [both CH(CH3)2, (CH2)6 CH3] the inhibition at 1 µM was 69.5%.
In the case of `COc1cccc(/C=C/C(=O)Nc2cc(C)c(O)c(C)c2)c1` [drawing 42], the inhibition at 1 µM is reported as 62.6%.
In the case of `COc1ccc(/C=C/C(=O)Nc2cc(C)c(O)c(C)c2)cc1` [drawing 43], the inhibition at 1 µM is reported as 65.6%.
Work on `CC(=O)Oc1ccc(CCC(=O)Nc2cc(C)c(O)c(C)c2)cc1OC(C)=O` [drawing 45] yielded an inhibition at 1 µM of 81.9%.
`COc1ccc(/C=C(\C)C(=O)Nc2cc(C(C)C)c(O)c(C(C)C)c2)cc1` [drawing 47] showed an inhibition at 1 µM of 88.8%.

Tested on: not given
Assay: not given
Details: stabilizer for polymers; cited from earlier work
For `CCCCCCCCCCCC(=O)Nc1cc(CC)c(O)c(C(C)(C)C)c1` [4-(lauroylamino)-2-ethyl-6-tert-butylphenol], the antioxidant activity is listed as “antioxidant activity”.
For `CCCCCCCCCCCCCCCCCC(=O)Nc1cc(C(C)(C)C)c(O)c(C(C)(C)C)c1` [4-(stearoylamino)-2,6-di-tert-butylphenol], the antioxidant activity is given as “antioxidant activity”.
